Tests used:
Format in all cases: functional
Klebsiella aerogenes = assay: Antibacterial activity against Enterobacter aerogenes assessed as growth inhibition by microtitration method
Escherichia coli = assay: Antibacterial activity against Escherichia coli assessed as growth inhibition by microtitration method
Staphylococcus aureus = assay: Antibacterial activity against Staphylococcus aureus assessed as growth inhibition by microtitration method
Bacillus subtilis = assay: Antibacterial activity against Bacillus subtilis assessed as growth inhibition by microtitration method
[1] = tested on: Staphylococcus epidermidis; assay: Antibacterial activity against Staphylococcus epidermidis assessed as growth inhibition by microtitration method
Pseudomonas aeruginosa = assay: Antibacterial activity against Pseudomonas aeruginosa assessed as growth inhibition by microtitration method

Compound | MIC (Klebsiella aerogenes) | MIC (Escherichia coli) | MIC (Staphylococcus aureus) | MIC (Bacillus subtilis) | MIC [1] | MIC (Pseudomonas aeruginosa)
CCn1cc(C(=O)N[C@H](C(=O)O)C(C)C)c(=O)c2ccc(C(F)(F)F)cc21 | 3.12 µg/mL | 12.5 µg/mL | 12.5 µg/mL | 50 µg/mL | 6.25 µg/mL | 6.25 µg/mL
CC(C)[C@H](NC(=O)c1cnc2cc(C(F)(F)F)ccc2c1O)C(=O)O | 25 µg/mL | 25 µg/mL | 25 µg/mL | 50 µg/mL | 25 µg/mL | 25 µg/mL
O=C(O)c1cn(C2CC2)c2cc(N3CCNCC3)c(F)cc2c1=O [CIPROFLOXACIN] | 0.012 µg/mL |  | 0.048 µg/mL | 0.048 µg/mL | 0.012 µg/mL | 0.012 µg/mL
O=C(O)[C@@H]1CCCN1C(=O)c1cnc2cc(C(F)(F)F)ccc2c1O | 25 µg/mL | 25 µg/mL | 25 µg/mL | 50 µg/mL | 50 µg/mL | 25 µg/mL
CCOC(=O)[C@@H]1CCCN1C(=O)c1cn(CC)c2cc(C(F)(F)F)ccc2c1=O | 12.5 µg/mL | 25 µg/mL | 25 µg/mL | 50 µg/mL | 25 µg/mL | 6.25 µg/mL
CCOC(=O)[C@H](CC(C)C)NC(=O)c1cn(CC)c2cc(C(F)(F)F)ccc2c1=O | 12.5 µg/mL | 25 µg/mL | 25 µg/mL | 50 µg/mL | 25 µg/mL | 6.25 µg/mL
CC[C@@H](C)[C@H](NC(=O)c1cn(CC)c2cc(C(F)(F)F)ccc2c1=O)C(=O)O | 12.5 µg/mL | 12.5 µg/mL | 25 µg/mL | 25 µg/mL | 6.25 µg/mL | 6.25 µg/mL
CCOC(=O)[C@@H](Cc1ccccc1)NC(=O)c1cn(CC)c2cc(C(F)(F)F)ccc2c1=O | 25 µg/mL | 25 µg/mL | 25 µg/mL | 25 µg/mL | 25 µg/mL | 25 µg/mL
CCn1cc(C(=O)N[C@@H](Cc2ccccc2)C(=O)O)c(=O)c2ccc(C(F)(F)F)cc21 | 6.25 µg/mL | 12.5 µg/mL | 12.5 µg/mL | 50 µg/mL | 3.12 µg/mL | 3.12 µg/mL
O=C(N[C@H](Cc1ccccc1)C(=O)O)c1cnc2cc(C(F)(F)F)ccc2c1O | 12.5 µg/mL | 25 µg/mL | 25 µg/mL | 50 µg/mL | 25 µg/mL | 6.12 µg/mL
CCOC(=O)[C@H](Cc1ccccc1)NC(=O)c1cn(CC)c2cc(C(F)(F)F)ccc2c1=O | 6.25 µg/mL | 12.5 µg/mL | 25 µg/mL | 50 µg/mL | 6.25 µg/mL | 6.25 µg/mL
CCOC(=O)[C@@H](NC(=O)c1cn(CC)c2cc(C(F)(F)F)ccc2c1=O)C(C)C | 12.5 µg/mL | 25 µg/mL | 25 µg/mL | 25 µg/mL | 25 µg/mL | 25 µg/mL
CCn1cc(C(=O)N[C@H](Cc2ccccc2)C(=O)O)c(=O)c2ccc(C(F)(F)F)cc21 | 12.5 µg/mL | 25 µg/mL | 25 µg/mL | 25 µg/mL | 25 µg/mL | 25 µg/mL
CC(C)C[C@H](NC(=O)c1cnc2cc(C(F)(F)F)ccc2c1O)C(=O)O | 25 µg/mL | 25 µg/mL | 25 µg/mL | 50 µg/mL | 25 µg/mL | 25 µg/mL
C[C@@H](NC(=O)c1cnc2cc(C(F)(F)F)ccc2c1O)C(=O)O | 25 µg/mL | 25 µg/mL | 25 µg/mL | 50 µg/mL | 12.5 µg/mL | 6.12 µg/mL
CCn1cc(C(=O)N[C@H](C)C(=O)O)c(=O)c2ccc(C(F)(F)F)cc21 | 25 µg/mL | 12.5 µg/mL | 25 µg/mL | 50 µg/mL | 25 µg/mL | 12.5 µg/mL
CCOC(=O)[C@@H](C)NC(=O)c1cn(CC)c2cc(C(F)(F)F)ccc2c1=O | 12.5 µg/mL | 25 µg/mL | 25 µg/mL | 25 µg/mL | 25 µg/mL | 6.12 µg/mL
CCn1cc(C(=O)N[C@@H](CC(C)C)C(=O)O)c(=O)c2ccc(C(F)(F)F)cc21 | 12.5 µg/mL | 12.5 µg/mL | 25 µg/mL | 25 µg/mL | 6.25 µg/mL | 6.25 µg/mL
O=C(N[C@@H](Cc1ccccc1)C(=O)O)c1cnc2cc(C(F)(F)F)ccc2c1O | 25 µg/mL | 25 µg/mL | 12.5 µg/mL | 50 µg/mL | 25 µg/mL | 25 µg/mL
CCOC(=O)[C@H](C)NC(=O)c1cn(CC)c2cc(C(F)(F)F)ccc2c1=O | 12.5 µg/mL | 25 µg/mL | 50 µg/mL | 25 µg/mL | 6.25 µg/mL | 25 µg/mL
C[C@H](NC(=O)c1cnc2cc(C(F)(F)F)ccc2c1O)C(=O)O | 50 µg/mL | 25 µg/mL | 25 µg/mL | 50 µg/mL | 25 µg/mL | 25 µg/mL
CC[C@@H](C)[C@H](NC(=O)c1cnc2cc(C(F)(F)F)ccc2c1O)C(=O)O | 25 µg/mL | 25 µg/mL | 25 µg/mL | 50 µg/mL | 25 µg/mL | 25 µg/mL
CCOC(=O)[C@@H](NC(=O)c1cn(CC)c2cc(C(F)(F)F)ccc2c1=O)[C@H](C)CC | 12.5 µg/mL | 25 µg/mL | 25 µg/mL | 50 µg/mL | 25 µg/mL | 25 µg/mL
CCn1cc(C(=O)N[C@@H](C)C(=O)O)c(=O)c2ccc(C(F)(F)F)cc21 | 12.5 µg/mL | 12.5 µg/mL | 12.5 µg/mL | 50 µg/mL | 6.25 µg/mL | 25 µg/mL
CCn1cc(C(=O)N2CCC[C@H]2C(=O)O)c(=O)c2ccc(C(F)(F)F)cc21 | 6.25 µg/mL | 12.5 µg/mL | 25 µg/mL | 25 µg/mL | 6.25 µg/mL | 6.25 µg/mL
